Ends that are not written are not given here.
Experiments:
Assay type in all cases: cell-based
[1] = tested on: Vibrio aestuarianus; settings: 16 h
Procedure: (§1) The antibacterial activity of peptides β-Pte20, β-Pte17, β-Pte13 and β-Pte10 from pteroicidin B and γ-Pte20, γ-Pte17, γ-Pte13 and γ-Pte10 from pteroicidin C was evaluated on several bacteria as presented in Table 3. All peptides were solubilized in sterilized water. The minimum inhibitory concentrations (MICs) were determined according to the liquid growth inhibition test following the protocol established by Hetru and Bulet and used for the study of α-pteroicidins. Briefly, 10 μL of peptide solution were added to 100 μL of bacterial suspension at a starting OD600 of 0.001 (~10^5 to 10^6 CFU/mL according to strain) and incubated in 96-well microplates. Bacterial growth was assessed by optical density measurement at 595 nm after 16 h of incubation. All the tests were performed three times, and each peptide concentration between 0.1 and 50 µM was tested in triplicate. MICs were expressed in µM as an [a]–[b] concentration interval where [a] was the last concentration with bacterial growth and [b] was the first concentration with 100% bacterial growth inhibition. MBCs (minimal bactericidal concentrations) were expressed in µM as an [a]–[b] concentration interval where [a] was the last concentration with bacterial growth and [b] was the first concentration that killed 100% of the bacteria, determined after the plating on agar plates.

[2] = tested on: Listeria monocytogenes; settings: 16 h
Procedure: as §1

[3] = tested on: Aeromonas salmonicida; settings: 16 h
Procedure: as §1

[4] = tested on: Escherichia coli; settings: 16 h
Procedure: as §1

[5] = tested on: Staphylococcus aureus; settings: 16 h
Procedure: as §1

[6] = tested on: Vibrio splendidus; settings: 16 h
Procedure: as §1

[7] = tested on: Vibrio vulnificus; settings: 16 h
Procedure: as §1

[8] = tested on: Salmonella typhimurium; settings: 16 h; for MIC: murium
Procedure: as §1

[9] = tested on: Enterococcus faecalis; settings: 16 h
Procedure: as §1

[10] = tested on: human red blood cells; settings: 200 µM
Procedure: The hemolytic activity of peptides β-Pte20, β-Pte17, β-Pte13 and β-Pte10 from pteroicidin B and γ-Pte20, γ-Pte17, γ-Pte13 and γ-Pte10 from pteroicidin C was evaluated on human red blood cells (RBCs) following the protocol previously described in [96] and used for α-Pte in a previous study. RBCs were obtained from nine blood samples from French blood donors thanks to the support of the Etablissement Français du Sang (EFS). RBCs were rinsed twice in PBS and then diluted to obtain a 1% erythrocyte solution (~5 × 10^6 cells determined using a Scepter™ 2.0 cell counter). Ninety μL of erythrocyte solution were incubated with 90 μL of peptide solution at concentrations ranging from 5 to 200 μM, for one hour at 37 °C without shaking. The percentage of hemolysis was determined by optical density measurement at 415 nm. The experiment was performed in triplicate. The 0% hemolysis and 100% hemolysis controls were determined in PBS and 1% Triton X-100, respectively.

For FFKRLKNAFKSARQAWR [β-Pte17], the MBC [1] was 10 to 25 µM, the MIC [1] was 10 to 25 µM and the MBC [2] was 25 to 50 µM. It also gave an MIC [2] of 5 to 10 µM, an MBC [3] of 5 to 10 µM and an MIC [3] of 5 to 10 µM. It also gave an MBC [4] of 1 to 5 µM, an MIC [4] of 1 to 5 µM and an MBC [5] of 25 to 50 µM. The MIC [5] was 10 to 25 µM, the MBC [6] was 10 to 25 µM and the MIC [6] was 10 to 25 µM. For the same sequence, the MBC [7] was 10 to 25 µM, the MIC [7] was 10 to 25 µM and the MBC [8] was 10 to 25 µM. The MIC [8] was 10 to 25 µM.
FFKRLKNAFKSARQAWRDYK [β-Pte20] showed an MBC [1] of 5 to 10 µM, an MIC [1] of 1 to 5 µM and an MBC [2] of 5 to 10 µM. It also gave an MIC [2] of 1 to 5 µM, an MBC [3] of 1 to 5 µM and an MIC [3] of 1 to 5 µM. It also gave an MBC [4] of 5 to 10 µM, an MIC [4] of 1 to 5 µM and an MBC [5] of 10 to 25 µM. For the same sequence, the MIC [5] was 1 to 5 µM, the MBC [6] was 5 to 10 µM and the MIC [6] was 1 to 5 µM. It also gave an MBC [7] of 5 to 10 µM, an MIC [7] of 5 to 10 µM and an MBC [8] of 10 to 25 µM. It also gave an MIC [8] of 10 to 25 µM.
Work on FFRHLKSLWK [γ-Pte10] yielded an MIC [3] of 25 to 50 µM, an MBC [4] of 25 to 50 µM and an MIC [4] of 25 to 50 µM.
With FFRHLKSLWKGAK [γ-Pte13] the MIC [3] was 25 to 50 µM, the MBC [4] was 10 to 25 µM and the MIC [4] was 10 to 25 µM.
FFRHLKSLWKGAKAAFR [γ-Pte17] was tested, and the MBC [1] was 5 to 10 µM, the MIC [1] was 5 to 10 µM and the MBC [2] was 5 to 10 µM. The MIC [2] was 1 to 5 µM, the MIC [9] was 1 to 5 µM and the MBC [3] was 1 to 5 µM. The MIC [3] was 1 to 5 µM, the MBC [4] was 10 to 25 µM and the MIC [4] was 1 to 5 µM. It also gave an MBC [5] of 1 to 5 µM, an MIC [5] of 1 to 5 µM and an MBC [6] of 10 to 25 µM. For the same sequence, the MIC [6] was 10 to 25 µM, the MBC [7] was 10 to 25 µM and the MIC [7] was 10 to 25 µM. For the same sequence, the MBC [8] was 5 to 10 µM, the MIC [8] was 5 to 10 µM and the hemolysis [10] was 43%.
With FFRHLKSLWKGAKAAFRGAR [γ-Pte20] the MBC [1] was 10 to 25 µM, the MIC [1] was 5 to 10 µM and the MBC [2] was 5 to 10 µM. It also gave an MIC [2] of 1 to 5 µM, an MIC [9] of 1 to 5 µM and an MBC [3] of 1 to 5 µM. The MIC [3] was 1 to 5 µM, the MBC [4] was 1 to 5 µM and the MIC [4] was 1 to 5 µM. The MBC [5] was 1 to 5 µM, the MIC [5] was 1 to 5 µM and the MBC [6] was 5 to 10 µM. The MIC [6] was 5 to 10 µM, the MBC [7] was 10 to 25 µM and the MIC [7] was 10 to 25 µM. For the same sequence, the MBC [8] was 5 to 10 µM, the MIC [8] was 5 to 10 µM and the hemolysis [10] was 19%.
